Experimental data taken from PubChem BioAssay (NCI).
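In this assay, cells in 96-well plates receive the compound at five concentrations for 48 hours. Endpoints are linearly interpolated between the surrounding concentrations. Abbreviation: GI50, concentration required for 50% inhibition of growth. Definition used: TGI = concentration required for complete inhibition of growth.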

Experiments:
Assay in all cases: NCI anticancer screen, dose series, 48 h
UACC-62 melanoma = tested on: UACC-62 melanoma
NCI-H460 lung = tested on: NCI-H460 lung
HT29 colon = tested on: HT29 colon
OVCAR-8 ovarian = tested on: OVCAR-8 ovarian
NCI-H522 lung = tested on: NCI-H522 lung
NCI-H226 lung = tested on: NCI-H226 lung
SR leukemia = tested on: SR leukemia
UACC-257 melanoma = tested on: UACC-257 melanoma
A549 NSCLC = tested on: A549 NSCLC
HS 578T breast = tested on: HS 578T breast

Compound | TGI (UACC-62 melanoma) [µM] | TGI (NCI-H460 lung) [µM] | TGI (HT29 colon) [µM] | TGI (OVCAR-8 ovarian) [µM] | TGI (NCI-H522 lung) [µM] | TGI (NCI-H226 lung) [µM] | TGI (SR leukemia) [µM] | TGI (UACC-257 melanoma) [µM] | TGI (A549 NSCLC) [µM] | TGI (HS 578T breast) [µM] | GI50 (UACC-62 melanoma) [µM] | GI50 (NCI-H460 lung) [µM] | GI50 (HT29 colon) [µM] | GI50 (OVCAR-8 ovarian) [µM] | GI50 (NCI-H522 lung) [µM] | GI50 (NCI-H226 lung) [µM] | GI50 (HS 578T breast) [µM] | GI50 (UACC-257 melanoma) [µM] | GI50 (A549 NSCLC) [µM] | GI50 (SR leukemia) [µM]
CC(=O)c1sc(-c2nc(C)c(C(=O)/C=C\c3ccc(/C=C\C(=O)c4sc(-c5nc(C)c(C(C)=O)s5)nc4C)cc3)s2)nc1C | > 100 | > 100 | > 100 | > 100 | > 100 | > 100 | > 100 | > 100 | > 100 |  |  |  |  |  |  |  |  |  |  | 
COc1ccc(OC)c2c(/C=C/c3ccc(N(C)C)cc3)ccnc12 | > 10 | > 10 | > 10 | > 10 | > 10 | > 10 |  | > 10 | > 10 | > 10 |  |  |  |  |  |  |  |  |  | 
C[C@]12CC[C@H](O)C[C@H]1CC[C@@H]1[C@@H]2CC[C@]2(C)[C@@H](C3=CC(=O)OC3)CC[C@]12O | 1.09 | 0.139 | 1.6 | 1.07 | 0.436 | 2.83 |  | 2.63 | 0.0456 | > 100 | 0.32 |  |  |  |  |  |  |  |  | 
COC(=O)/C(C#N)=C1\CCC(O)N1 (stereo unspecified) | > 100 | > 100 | > 100 | > 100 | > 100 | > 100 | > 100 | > 100 | > 100 |  |  |  |  |  |  |  |  |  |  | 
COc1cc2ccc3c4cc(OC)c(OC(C)C)cc4cnc3c2cc1OC | > 100 | > 100 | > 100 | > 100 | > 100 | > 100 | > 100 | > 100 | > 100 |  |  |  |  |  |  |  |  |  |  | 
C=C1C[C@]23CCC4C(C)(C)C(=O)CC[C@]4(C)C2C[C@H]1C(O)C3=O (stereo partly specified) | > 75 |  |  | > 75 | > 75 | > 75 | > 75 | > 75 | > 75 |  |  |  |  |  |  |  |  |  |  | 
CCCCOC(=O)NC(=O)c1cn(CCCOC(=O)NCCCCCCNC(=O)OCCCn2cc(C(=O)NC(=O)OCCCC)c(=O)[nH]c2=O)c(=O)[nH]c1=O | > 100 | > 100 | > 100 | > 100 | > 100 |  | > 100 | > 100 | > 100 |  |  |  |  |  |  |  |  |  |  | 
Cc1cc[c-]cc1.Fc1c[c-]c(-c2ccccn2)c(F)c1.[Pt+2].c1ccc(P(C[PH+](c2ccccc2)c2ccccc2)c2ccccc2)cc1 | 9.31 | 7.1 | 12.4 | 15.4 | 8.27 | 11.6 |  | 8.15 | 12.1 | 9.94 | 2.04 | 1.77 | 2.61 | 2.68 | 2.12 | 2.93 | 2.61 | 2.37 | 1.43 | 
O=C1CC2C(=O)N(Cc3ccccc3)C1C=C2S(=O)(=O)c1ccccc1 (stereo unspecified) | > 100 | > 100 | > 100 | > 100 | > 100 | > 100 | > 100 | > 100 | > 100 |  |  |  |  |  |  |  |  |  |  | 
COC(=O)/C(C=O)=C/Sc1ccccc1 | 77.8 | > 100 | 81.3 | 31.8 | 24 | 44.6 | > 100 | > 100 | > 100 |  |  |  |  |  |  |  |  |  |  | 
Nc1ccn(C2(CO)C=C(CO)C(O)C2O)c(=O)n1 (stereo unspecified) | > 25.8 | > 25.8 |  | > 25.8 | > 25.8 | > 25.8 | > 25.8 | > 25.8 | > 25.8 |  |  |  |  |  |  |  |  |  |  | 
CC1=NN(C(=O)CC(=O)N(C(=O)c2ccccc2Cl)c2ccc(C)cc2)C(=O)C1N=Nc1ccc([N+](=O)[O-])cc1 (stereo unspecified) | > 53.7 | > 76.5 | > 100 | 78.1 | > 100 | > 100 | > 100 | > 100 | > 67.7 |  |  |  |  |  |  |  |  |  |  | 
O=C(Nc1ccc(-n2cc(-c3ccncc3)c(-c3ccc(Cl)c(O)c3)n2)cc1)Nc1ccc(Cl)c(C(F)(F)F)c1 | 3.44 | 3.4 |  | 4.8 |  | 10.8 |  | 3.4 | 5.96 | 4.43 | 1.7 | 1.7 |  | 1.77 |  | 2.76 | 1.39 | 1.51 | 2.21 | 
COc1ccc2c(O)cc3c(c2c1)[C@H](CCl)CN3C(=O)c1cc2cc(NC(=O)CCN3CCOCC3)ccc2[se]1 | < 0.001 | 1.09 | > 3.24 | 0.0843 | 0.0298 | 0.00163 | > 10 | 0.00319 |  |  | < 0.001 | < 0.001 | < 0.001 | < 0.001 | < 0.001 | < 0.001 |  | < 0.001 |  | < 0.001
O=C(Nc1cc(Cl)ccc1Cl)C(=O)C(c1cnc2ccccc2n1)[N+](=O)[O-] (stereo unspecified) | > 100 | > 100 | > 100 | > 100 | > 100 | > 100 | > 100 | > 100 | > 100 |  |  |  |  |  |  |  |  |  |  | 
CC(C)CCCC(C)[C@H]1CCC2[C@H]3C(CC[C@@]21C)[C@@]1(C)CCC=C[C@]12C[C@@H]2[C@@H]3O (stereo partly specified) | > 100 | > 100 | > 100 | > 100 | > 100 | > 100 | > 100 | > 100 | > 100 |  |  |  |  |  |  |  |  |  |  | 
Cc1cc(NS(=O)(=O)c2ccc(Nc3c4ccccc4nc4c(C(=O)NCCN(C)C)cccc34)cc2)no1 | 14.4 | 26.6 | > 100 | > 100 | 4.56 | 2.92 | > 100 |  | 71 |  |  |  |  |  |  |  |  |  |  | 
COc1cccc(-n2c3nc(=O)n(C)c(=O)c-3nc3ccccc32)c1 | 19.5 | 33.4 | 40.8 | 49.6 | 97.5 | 55.6 |  | 33.8 | 52.2 |  |  |  |  |  |  |  |  |  |  | 
O=c1[nH]c2cc(Cl)ccc2nc1/C(=N\O)C(O)c1ccc(Cl)cc1Cl (stereo unspecified) | > 100 | > 100 | > 100 | > 100 | > 100 | > 100 | > 100 | > 100 | > 100 |  |  |  |  |  |  |  |  |  |  | 
N.N.N.N.[Cl-].[Co+3].[N-]=[N+]=[N-].[N-]=[N+]=[N-] | > 100 | > 100 | > 100 | > 100 | > 100 |  |  | > 100 | > 100 |  | > 100 | > 100 | > 100 | > 100 | > 100 |  |  | > 100 | > 100 | 
